Results from patent publication US10738056B2 (Aduro BioTech, Inc., priority 2017, dated 2020).

Molecular target: Human cGAS amino acids 155-522 (Homo sapiens (Human), UniProt Q8N884)
Assay: cGAS biochemical activity assay (ATP remaining, Kinase-Glo Max luminescence)
Conditions: human cGAS 155-522, ATP remaining (Kinase-Glo Max); read-out: cGAS IC50

Sequence of Human cGAS amino acids 155-522 (Q8N884 157-522): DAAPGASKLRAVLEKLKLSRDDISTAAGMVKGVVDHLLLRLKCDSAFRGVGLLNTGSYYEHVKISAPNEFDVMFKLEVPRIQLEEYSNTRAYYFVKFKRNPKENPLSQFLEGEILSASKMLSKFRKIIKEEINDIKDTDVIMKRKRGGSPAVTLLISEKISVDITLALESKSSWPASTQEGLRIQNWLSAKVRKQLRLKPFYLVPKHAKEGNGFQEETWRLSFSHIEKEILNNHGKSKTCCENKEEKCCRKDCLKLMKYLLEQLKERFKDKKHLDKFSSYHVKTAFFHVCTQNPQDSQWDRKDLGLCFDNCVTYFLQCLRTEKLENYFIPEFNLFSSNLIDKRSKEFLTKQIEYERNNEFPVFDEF

**Q.** `COc1cccc2oc(-c3c(C4CCC(C(=O)O)C4)[nH]c4c(-c5ccccc5)c(C(F)(F)F)nn4c3=O)nc12` (stereo not shown) [Compound C1239, 3-(6-(4-methoxybenzo[d]oxazol-2-yl)-7-oxo-3-phenyl-2-(trifluoromethyl)-4,7-dihydropyrazolo[1,5-a]pyrimidin-5-yl)cyclopentane-1-carboxylic acid] was tested. Which IC50 did it give?
**A.** The IC50 was under 20 µM.

**Q.** Which IC50 does the source give for `COc1ccc(NC(=O)Cc2c(C)[nH]c3c(-c4ccccc4)c(C(F)(F)F)nn3c2=O)cc1` [Compound B1006, N-(4-methoxyphenyl)-2-(5-methyl-7-oxo-3-phenyl-2-(trifluoromethyl)-4,7-dihydropyrazolo[1,5-a]pyrimidin-6-yl)acetamide] here?
**A.** Its IC50 is 20 to 250 µM.

**Q.** Which IC50 does the source give for `Cc1[nH]c2c(-c3ccccc3)c(C(F)(F)F)nn2c(=O)c1C(=O)NC1CCOCC1` [Compound A1025, 5-methyl-7-oxo-3-phenyl-N-(tetrahydro-2H-pyran-4-yl)-2-(trifluoromethyl)-4,7-dihydropyrazolo[1,5-a]pyrimidine-6-carboxamide] here?
**A.** Its IC50 is 20 to 250 µM.

**Q.** With `COc1cccc(NC(=O)c2c(C)[nH]c3c(-c4ccccc4)c(C4CC4)nn3c2=O)c1` [Compound A1123, 2-cyclopropyl-N-(3-methoxyphenyl)-5-methyl-7-oxo-3-phenyl-4,7-dihydropyrazolo[1,5-a]pyrimidine-6-carboxamide] as the compound, how does the IC50 read?
**A.** Its IC50 is over 250 µM.

**Q.** With `Cc1[nH]c2c(-c3ccccc3)c(C(F)(F)F)nn2c(=O)c1-c1nnc(C2CCN(S(C)(=O)=O)CC2)o1` [Compound D1053, 5-methyl-6-(5-(1-(methylsulfonyl)piperidin-4-yl)-1,3,4-oxadiazol-2-yl)-3-phenyl-2-(trifluoromethyl)pyrazolo[1,5-a]pyrimidin-7(4H)-one] as the compound, how does the IC50 read?
**A.** Its IC50 is 20 to 250 µM.

**Q.** For `Cc1[nH]c2c(-c3ccccc3)c(C(F)(F)F)nn2c(=O)c1C(=O)Nc1ccccn1` [Compound A1017, 5-methyl-7-oxo-3-phenyl-N-(pyridin-2-yl)-2-(trifluoromethyl)-4,7-dihydropyrazolo[1,5-a]pyrimidine-6-carboxamide], which IC50 is on record?
**A.** The IC50 was under 20 µM.

**Q.** Which IC50 does the source give for `COc1cccc2oc(-c3c(C)[nH]c4c(-c5cccc(C)c5)c(C(F)(F)F)nn4c3=O)nc12` [Compound C1172, 6-(4-methoxybenzo[d]oxazol-2-yl)-5-methyl-3-(m-tolyl)-2-(trifluoromethyl)pyrazolo[1,5-a]pyrimidin-7(4H)-one] here?
**A.** The IC50 was under 20 µM.

**Q.** With `Cc1[nH]c2c(-c3ccccc3)c(C(F)(F)F)nn2c(=O)c1-c1nnc(N2CCCC(N)C2)o1` (stereo not shown) [Compound D1084, 6-(5-(3-aminopiperidin-1-yl)-1,3,4-oxadiazol-2-yl)-5-methyl-3-phenyl-2-(trifluoromethyl)pyrazolo[1,5-a]pyrimidin-7(4H)-one] as the compound, how does the IC50 read?
**A.** The IC50 was under 20 µM.

**Q.** How did the IC50 turn out when `COc1cccc2oc(-c3c(C)[nH]c4c(-c5ccccc5)c(C5CC5)nn4c3=O)nc12` [Compound C1242, 2-cyclopropyl-6-(4-methoxybenzo[d]oxazol-2-yl)-5-methyl-3-phenylpyrazolo[1,5-a]pyrimidin-7(4H)-one] was run?
**A.** The IC50 was over 250 µM.

**Q.** For `COc1cccn2c(CO)c(-c3c(C)[nH]c4c(-c5ccccc5)c(C(F)(F)F)nn4c3=O)nc12` [Compound C1215, 6-(3-(hydroxymethyl)-8-methoxyimidazo[1,2-a]pyridin-2-yl)-5-methyl-3-phenyl-2-(trifluoromethyl)pyrazolo[1,5-a]pyrimidin-7(4H)-one], which IC50 is on record?
**A.** The IC50 was 20 to 250 µM.

**Q.** Which IC50 does the source give for `COc1cncc(NC(=O)c2c(C)[nH]c3c(-c4ccccc4)c(C(F)(F)F)nn3c2=O)c1` [Compound A1094, N-(5-methoxypyridin-3-yl)-5-methyl-7-oxo-3-phenyl-2-(trifluoromethyl)-4,7-dihydropyrazolo[1,5-a]pyrimidine-6-carboxamide] here?
**A.** The IC50 was under 20 µM.

**Q.** Which IC50 does the source give for `Cc1[nH]c2c(-c3ccccc3)c(C(F)(F)F)nn2c(=O)c1-c1nnc(C(C)C)o1` [Compound D1005, 6-(5-isopropyl-1,3,4-oxadiazol-2-yl)-5-methyl-3-phenyl-2-(trifluoromethyl)pyrazolo[1,5-a]pyrimidin-7(4H)-one] here?
**A.** The IC50 was 20 to 250 µM.

**Q.** Which IC50 does the source give for `COc1ncccc1NC(=O)c1c(C)[nH]c2c(-c3ccccc3)c(C(F)(F)F)nn2c1=O` [Compound A1093, N-(2-methoxypyridin-3-yl)-5-methyl-7-oxo-3-phenyl-2-(trifluoromethyl)-4,7-dihydropyrazolo[1,5-a]pyrimidine-6-carboxamide] here?
**A.** Its IC50 is 20 to 250 µM.

**Q.** How did the IC50 turn out when `COc1cccc2oc(-c3c(P(C)(C)=O)[nH]c4c(-c5ccccc5)c(C(F)(F)F)nn4c3=O)nc12` [Compound C1284, 5-(dimethylphosphoryl)-6-(4-methoxybenzo[d]oxazol-2-yl)-3-phenyl-2-(trifluoromethyl)pyrazolo[1,5-a]pyrimidin-7(4)-one] was run?
**A.** Its IC50 is under 20 µM.

**Q.** With `Cc1[nH]c2c(-c3ccccc3)c(C(F)(F)F)nn2c(=O)c1C(=O)N1CCN(c2ccccc2)CC1` [Compound A1003, 5-methyl-3-phenyl-6-(4-phenylpiperazine-1-carbonyl)-2-(trifluoromethyl)pyrazolo[1,5-a]pyrimidin-7(4H)-one] as the compound, how does the IC50 read?
**A.** Its IC50 is over 250 µM.

**Q.** `COc1ccc(F)cc1NC(=O)c1c(C)[nH]c2c(-c3ccccc3)c(C(F)(F)F)nn2c1=O` [Compound A1071, N-(5-fluoro-2-methoxyphenyl)-5-methyl-7-oxo-3-phenyl-2-(trifluoromethyl)-4,7-dihydropyrazolo[1,5-a]pyrimidine-6-carboxamide] was tested. Which IC50 did it give?
**A.** The IC50 was 20 to 250 µM.

**Q.** `COCc1[nH]c2c(-c3ccccc3)c(C(=O)O)nn2c(=O)c1-c1nc2c(OC)cccc2o1` [Compound C1090, 6-(4-methoxybenzo[d]oxazol-2-yl)-5-(methoxymethyl)-7-oxo-3-phenyl-4,7-dihydropyrazolo[1,5-a]pyrimidine-2-carboxylic acid] was tested. Which IC50 did it give?
**A.** Its IC50 is 20 to 250 µM.

**Q.** With `CC(=O)N1CCC(NC(=O)c2c(C)[nH]c3c(-c4ccccc4)c(C(F)(F)F)nn3c2=O)CC1` [Compound A1027, N-(1-acetylpiperidin-4-yl)-5-methyl-7-oxo-3-phenyl-2-(trifluoromethyl)-4,7-dihydropyrazolo[1,5-a]pyrimidine-6-carboxamide] as the compound, how does the IC50 read?
**A.** The IC50 was 20 to 250 µM.

**Q.** How did the IC50 turn out when `Cc1[nH]c2c(-c3ccccc3)c(C(F)(F)F)nn2c(=O)c1-c1nnc(C2CCCCC2)s1` [Compound D1006, 6-(5-cyclohexyl-1,3,4-thiadiazol-2-yl)-5-methyl-3-phenyl-2-(trifluoromethyl)pyrazolo[1,5-a]pyrimidin-7(4H)-one] was run?
**A.** The IC50 was under 20 µM.

**Q.** How did the IC50 turn out when `Cc1[nH]c2c(-c3ccccc3)c(C(F)(F)F)nn2c(=O)c1-c1nnc(C2CCCN(C(=O)OC(C)(C)C)C2)o1` (stereo not shown) [Compound D1031, tert-butyl 3-(5-(5-methyl-7-oxo-3-phenyl-2-(trifluoromethyl)-4,7-dihydropyrazolo[1,5-a]pyrimidin-6-yl)-1,3,4-oxadiazol-2-yl)piperidine-1-carboxylate] was run?
**A.** Its IC50 is 20 to 250 µM.

**Q.** How did the IC50 turn out when `Cc1[nH]c2c(-c3ccccc3)c(C(F)(F)F)nn2c(=O)c1-c1nnc(C2CCCC2)o1` [Compound D1003, 6-(5-cyclopentyl-1,3,4-oxadiazol-2-yl)-5-methyl-3-phenyl-2-(trifluoromethyl)pyrazolo[1,5-a]pyrimidin-7(4H)-one] was run?
**A.** Its IC50 is under 20 µM.

**Q.** How did the IC50 turn out when `COc1cccc(NC(=O)c2c(C)[nH]c3c(-c4ccccc4)c(S(C)(=O)=O)nn3c2=O)c1` [Compound A1126, N-(3-methoxyphenyl)-5-methyl-2-(methylsulfonyl)-7-oxo-3-phenyl-4,7-dihydropyrazolo[1,5-a]pyrimidine-6-carboxamide] was run?
**A.** Its IC50 is over 250 µM.
